From ChEMBL document CHEMBL5096176, “AAA ATPases as therapeutic targets: Structure, functions, and small-molecule inhibitors” (Eur J Med Chem, 2021)

Assays:
[1] = Selectivity index, ratio of CC50 for MDCK cells to EC50 for Oseltamivir-resisitant Influenza A virus (A/North Carolina/39/2009 (H1N1)) infected in MDCK cells; type: toxicity, cell-based; conditions: dog, read-out: Ratio CC50/EC50
[2] = tested on: Cytomegalovirus; experiment: Antiviral activity against human Cytomegalovirus infected in human fibroblast cells assessed as viral growth inhibition preincubated for 24 hrs with compound followed by viral infection by plaque assay; type: functional, organism-based; conditions: Human betaherpesvirus 5, Fibroblast
[3] = tested on: Influenza A virus; experiment: Antiviral activity against Influenza A virus (A/Texas/04/2009 (H1N1)) infected in MDCK cells over expressing ST6Gal I assessed as inhibition of viral replication by plaque assay; type: functional, organism-based
[4] = tested on: Influenza A virus; experiment: Antiviral activity against Influenza A virus (A/Denmark/528/2009 (H1N1)) infected in MDCK cells over expressing ST6Gal I assessed as inhibition of viral replication by plaque assay; type: functional, organism-based
[5] = Selectivity index, ratio of CC50 for MDCK cells to EC50 for Influenza A virus (A/Texas/04/2009 (H1N1)) infected in MDCK cells; type: toxicity, cell-based; conditions: dog, read-out: Ratio CC50/EC50
[6] = Selectivity index, ratio of CC50 for MDCK cells to EC50 for Influenza A virus (A/Denmark/528/2009 (H1N1)) infected in MDCK cells; type: toxicity, cell-based; conditions: dog, read-out: Ratio CC50/EC50
[7] = tested on: Huh-7; experiment: Anticancer activity against human Huh-7 cells assessed as inhibition of cell proliferation incubated for 4 days by MTS assay; type: functional, cell-based; conditions: Huh-7, 96 h
[8] = tested on: Hep 3B2; experiment: Anticancer activity against human Hep3B cells assessed as inhibition of cell proliferation incubated for 4 days by MTS assay; type: functional, cell-based; conditions: 96 h
[9] = tested on: HeLa; experiment: Anticancer activity against human HeLa cells assessed as cell growth inhibition; type: functional, cell-based
[10] = tested on: Schizosaccharomyces pombe; experiment: Antifungal activity against Schizosaccharomyces pombe assessed as fungal growth inhibition incubated for 18 hrs by absorbance based assay; type: functional
[11] = biological target: T1, Spastin (Homo sapiens, UniProt Q9UBP0); experiment: Inhibition of human Spastin in presence of ATP
T1 sequence (Q9UBP0 whole entry): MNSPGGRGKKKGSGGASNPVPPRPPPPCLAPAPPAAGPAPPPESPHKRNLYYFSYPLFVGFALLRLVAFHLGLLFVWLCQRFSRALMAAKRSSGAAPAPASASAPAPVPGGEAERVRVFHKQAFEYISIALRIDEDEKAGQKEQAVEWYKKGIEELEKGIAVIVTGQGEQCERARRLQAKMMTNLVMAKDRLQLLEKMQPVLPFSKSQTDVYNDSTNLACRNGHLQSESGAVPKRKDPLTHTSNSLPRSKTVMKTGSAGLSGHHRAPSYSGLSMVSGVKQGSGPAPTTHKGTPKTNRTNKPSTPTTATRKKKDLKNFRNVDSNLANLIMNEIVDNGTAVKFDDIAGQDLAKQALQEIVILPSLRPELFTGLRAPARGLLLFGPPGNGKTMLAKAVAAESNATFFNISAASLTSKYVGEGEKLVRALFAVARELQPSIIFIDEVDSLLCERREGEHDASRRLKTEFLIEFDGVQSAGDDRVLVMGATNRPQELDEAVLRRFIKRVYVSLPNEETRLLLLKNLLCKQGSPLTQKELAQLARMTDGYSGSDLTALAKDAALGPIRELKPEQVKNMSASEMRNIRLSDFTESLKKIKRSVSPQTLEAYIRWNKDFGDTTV

[12] = biological target: T2, Spastin (Drosophila melanogaster, UniProt Q8I0P1); experiment: Inhibition of wild-type Drosophila melanogaster Spastin (209 to 758 residues) in presence of ATP by NADH-coupled fluorescence assay
T2 sequence (Q8I0P1 whole entry): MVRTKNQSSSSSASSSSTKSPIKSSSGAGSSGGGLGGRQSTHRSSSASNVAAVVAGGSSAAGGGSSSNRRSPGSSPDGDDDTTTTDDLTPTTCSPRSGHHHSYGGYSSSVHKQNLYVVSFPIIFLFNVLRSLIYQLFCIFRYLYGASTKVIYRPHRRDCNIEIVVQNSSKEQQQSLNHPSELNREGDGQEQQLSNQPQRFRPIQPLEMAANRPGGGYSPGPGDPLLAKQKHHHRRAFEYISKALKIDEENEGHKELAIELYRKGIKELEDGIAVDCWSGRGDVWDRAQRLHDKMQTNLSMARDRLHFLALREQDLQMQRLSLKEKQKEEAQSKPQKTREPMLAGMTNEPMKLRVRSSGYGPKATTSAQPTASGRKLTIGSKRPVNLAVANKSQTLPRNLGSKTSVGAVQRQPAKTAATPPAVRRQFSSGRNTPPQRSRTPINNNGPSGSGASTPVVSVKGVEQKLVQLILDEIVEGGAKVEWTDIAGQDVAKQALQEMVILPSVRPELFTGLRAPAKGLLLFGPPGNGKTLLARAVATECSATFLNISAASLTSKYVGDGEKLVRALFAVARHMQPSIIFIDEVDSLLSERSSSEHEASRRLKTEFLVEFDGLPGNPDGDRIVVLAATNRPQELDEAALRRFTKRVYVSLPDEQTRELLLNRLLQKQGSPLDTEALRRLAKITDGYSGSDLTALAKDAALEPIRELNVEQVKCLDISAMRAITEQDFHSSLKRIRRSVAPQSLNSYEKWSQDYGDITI

[13] = Inhibition of Drosophila melanogaster Spastin N527C mutant (209 to 758 residues) in presence of ATP by NADH-coupled fluorescence assay
[14] = biological target: T3, Transitional endoplasmic reticulum ATPase (Homo sapiens, UniProt P55072); experiment: Inhibition of p97 (unknown origin) in presence of ATP by Biomol Green Reagent based assay
[15] = biological target: T3, Transitional endoplasmic reticulum ATPase; experiment: Inhibition of p97 (unknown origin) incubated for 15 mins in presence of ATP by ADP Glo assay

T3 sequence (P55072 whole entry): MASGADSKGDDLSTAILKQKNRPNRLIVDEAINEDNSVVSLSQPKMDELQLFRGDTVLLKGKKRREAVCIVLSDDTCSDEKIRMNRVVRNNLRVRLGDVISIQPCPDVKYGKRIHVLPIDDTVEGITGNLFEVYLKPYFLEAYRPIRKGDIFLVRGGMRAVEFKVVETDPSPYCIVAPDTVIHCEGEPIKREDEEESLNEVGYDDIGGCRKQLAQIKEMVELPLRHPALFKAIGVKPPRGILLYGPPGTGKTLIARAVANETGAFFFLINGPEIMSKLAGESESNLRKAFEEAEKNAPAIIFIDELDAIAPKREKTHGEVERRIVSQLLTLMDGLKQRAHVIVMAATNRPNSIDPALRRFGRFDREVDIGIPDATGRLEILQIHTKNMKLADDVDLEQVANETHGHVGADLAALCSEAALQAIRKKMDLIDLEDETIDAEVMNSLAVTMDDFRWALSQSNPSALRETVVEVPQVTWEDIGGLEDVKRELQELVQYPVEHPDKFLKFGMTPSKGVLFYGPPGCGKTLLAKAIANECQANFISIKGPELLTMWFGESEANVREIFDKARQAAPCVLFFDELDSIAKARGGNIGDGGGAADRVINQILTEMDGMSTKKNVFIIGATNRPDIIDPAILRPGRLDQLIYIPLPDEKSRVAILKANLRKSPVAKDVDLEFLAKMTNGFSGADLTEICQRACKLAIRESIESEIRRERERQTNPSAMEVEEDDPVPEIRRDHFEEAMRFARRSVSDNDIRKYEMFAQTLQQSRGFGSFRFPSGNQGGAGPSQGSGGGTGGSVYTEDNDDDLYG

## Cc1cc(OCc2nnc(SC3CCCC3)n2-c2cccnc2)ccc1-c1ccc(S(C)(=O)=O)cc1
[1]
  selectivity ratio: 50
[2]
  IC50: 0.13 µM
[3]
  EC50: 0.03 µM
[4]
  EC50: 0.03 µM
[5]
  selectivity ratio: 50
[6]
  selectivity ratio: 50

## O=c1[nH]c2ccccc2n1C1CCN(Cc2ccc(-c3nc4cc5[nH]cnc5cc4nc3-c3ccccc3)cc2)CC1
[7]
  IC50: 4 µM
[8]
  IC50: 3.5 µM

## O=C(CCl)Nc1cccc(NC2=NS(=O)(=O)c3ccccc32)c1
[9]
  IC50: 3 µM

## C=C(C)CSc1nnc2c(n1)[nH]c1cc(Br)ccc12
[10]
  GI50: 0.014 µM

## C=C(C)CSc1nnc2c(n1)[nH]c1ccccc12
[10]
  GI50: 0.136 µM

## CC(C)[C@@H]1CN(c2nc(Nc3cc(C(C)(C)C)[nH]n3)c3cc[nH]c3n2)CCN1
[11]
  IC50: 0.099 µM

## C[C@@H]1CNCCN1c1nc(Nc2cc(C(C)(C)C)[nH]n2)c2cccc(F)c2n1
[12]
  IC50: 4.84 µM
[13]
  IC50: 0.23 µM

## C[C@@H]1CNCCN1c1nc(Nc2cc(C(C)(C)C)[nH]n2)c2ccccc2n1
[11]
  IC50: 4.4 µM

## Cc1cc(OCc2cnc(SC3CCCC3)n2-c2cccnc2)ccc1C#CCCNC(C)C
[14]
  IC50: 0.007 µM

## Nc1nc(O)c2ncn(COC(CO)CO)c2n1 [GANCICLOVIR]
[15]
  IC50: 1.3 µM

## CC(=O)c1c(O)c(C)c(O)c(Cc2c(O)c3c(c(C(=O)/C=C/c4ccccc4)c2O)OC(C)(C)C=C3)c1O [ROTTLERIN]
[7]
  IC50: 0.57 µM
[8]
  IC50: 0.25 µM
